Measurements from PubChem BioAssay (NCI).
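Results reflect a 48-hour exposure of cells in 96-well plates to compound at five concentrations. GI50 = concentration required for 50% inhibition of growth. Definition used: TGI = concentration required for complete inhibition of growth.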

Key:
Assay in all cases: NCI anticancer screen, dose series, 48 h
[1] = system: SK-MEL-28 melanoma
[2] = system: SF-539 CNS
[3] = system: SNB-19 CNS
[4] = system: OVCAR-4 ovarian
[5] = system: U251 CNS
[6] = system: 786-0 renal
[7] = system: NCI-H23 lung
[8] = system: NCI/ADR-RES ovarian
[9] = system: SK-MEL-5 melanoma
[10] = system: UO-31 renal

Structure (SMILES): O=c1[nH]c2cc(Cl)c(Cl)cc2n2cc3ccccc3c12
- GI50 [1]: 33 µM
- TGI [1]: > 100 µM
- GI50 [2]: 19.1 µM
- TGI [2]: 39.5 µM
- GI50 [3]: 21.6 µM
- TGI [3]: 56.6 µM
- GI50 [4]: 20.3 µM
- TGI [4]: 49.8 µM
- GI50 [5]: 16.4 µM
- TGI [5]: 30 µM
- GI50 [6]: 24.9 µM
- TGI [6]: 39.6 µM
- GI50 [7]: 17.2 µM
- TGI [7]: 30.9 µM
- GI50 [8]: 17.7 µM
- TGI [8]: 31.6 µM
- GI50 [9]: 19.9 µM
- TGI [9]: 41.7 µM
- GI50 [10]: 17.9 µM
- TGI [10]: 32.8 µM

Structure (SMILES): COc1ccc(NC(=O)c2sc3nc4c(cc3c2N)CCCC4)cc1
- GI50 [1]: 15.2 µM
- TGI [1]: > 100 µM
- GI50 [2]: 0.372 µM
- TGI [2]: 6.52 µM
- GI50 [3]: 1.57 µM
- TGI [3]: > 100 µM
- GI50 [4]: 1.98 µM
- TGI [4]: > 100 µM
- GI50 [5]: 0.652 µM
- TGI [5]: > 100 µM
- GI50 [6]: 0.36 µM
- TGI [6]: 30.5 µM
- GI50 [7]: 2.55 µM
- TGI [7]: > 100 µM
- GI50 [8]: 0.384 µM
- TGI [8]: 3.85 µM
- GI50 [9]: 0.355 µM
- TGI [9]: 11 µM
- GI50 [10]: 0.795 µM
- TGI [10]: > 100 µM

Structure (SMILES): C[C@@H]1C/C=C\C(=O)O[C@H](/C=C/C#C/C=C/C(C)(C)[C@@H](O)c2cccc(O)c2Br)[C@@H](C)/C=C/[C@H](C)C[C@H](OC(N)=O)C1
- GI50 [1]: 0.278 µM
- TGI [1]: 12.9 µM
- GI50 [3]: 1.66 µM
- TGI [3]: 19.1 µM
- GI50 [4]: 6.45 µM
- TGI [4]: 22 µM
- GI50 [5]: 0.0706 µM
- TGI [5]: 18.3 µM
- GI50 [6]: 0.0361 µM
- TGI [6]: 15.2 µM
- GI50 [7]: 0.319 µM
- TGI [7]: 21.6 µM
- GI50 [8]: 0.0567 µM
- TGI [8]: 16.4 µM
- GI50 [9]: 0.0179 µM
- TGI [9]: 0.0354 µM
- GI50 [10]: 0.0227 µM
- TGI [10]: 0.0799 µM

Structure (SMILES): COc1ccc(C2ONC3=NCCN32)cc1 (centres undefined)
- GI50 [1]: > 100 µM
- TGI [1]: > 100 µM
- GI50 [2]: 84.8 µM
- TGI [2]: > 100 µM
- GI50 [3]: > 100 µM
- TGI [3]: > 100 µM
- GI50 [4]: > 100 µM
- TGI [4]: > 100 µM
- GI50 [5]: 45 µM
- TGI [5]: > 100 µM
- GI50 [6]: 25.5 µM
- TGI [6]: > 100 µM
- GI50 [7]: > 100 µM
- TGI [7]: > 100 µM
- GI50 [8]: 40.4 µM
- TGI [8]: > 100 µM
- GI50 [9]: 53.3 µM
- TGI [9]: > 100 µM

Structure (SMILES): COc1cc(O)c(C(C)=O)c(O)c1
- TGI [1]: > 100 µM
- TGI [2]: > 100 µM
- TGI [4]: > 100 µM
- TGI [5]: > 100 µM
- TGI [6]: > 100 µM
- TGI [7]: > 100 µM
- TGI [8]: > 100 µM
- TGI [9]: > 100 µM
- TGI [10]: > 100 µM

Structure (SMILES): C/C(=N\n1c(N)c(C#N)c(-c2ccc(Cl)cc2)c(C#N)c1=O)c1ccncc1
- GI50 [1]: 56.8 µM
- TGI [1]: > 100 µM
- GI50 [3]: 10.6 µM
- TGI [3]: > 100 µM
- GI50 [4]: 11.1 µM
- TGI [4]: 43.6 µM
- GI50 [5]: 19.6 µM
- TGI [5]: 44.6 µM
- GI50 [6]: 6.95 µM
- TGI [6]: 34 µM
- GI50 [7]: 11 µM
- TGI [7]: 45.7 µM
- GI50 [8]: 5.28 µM
- TGI [8]: 31.3 µM
- GI50 [9]: 21.8 µM
- TGI [9]: > 100 µM
- GI50 [10]: 7.33 µM
- TGI [10]: > 100 µM

Structure (SMILES): CCOCNc1ccc(N2C(=O)/C(=C/c3ccc(N(CC)CC)cc3)N=C2c2ccccc2)cc1
- GI50 [1]: > 100 µM
- TGI [1]: > 100 µM
- GI50 [2]: 4.87 µM
- TGI [2]: 26.7 µM
- GI50 [3]: 7.57 µM
- TGI [3]: 55.3 µM
- GI50 [4]: > 100 µM
- TGI [4]: > 100 µM
- GI50 [5]: 3.85 µM
- TGI [5]: 33 µM
- GI50 [6]: 5.64 µM
- TGI [6]: 22.9 µM
- GI50 [7]: 27.3 µM
- TGI [7]: > 100 µM
- GI50 [8]: 33.9 µM
- TGI [8]: > 100 µM
- GI50 [9]: 22.9 µM
- TGI [9]: > 100 µM

Structure (SMILES): O=C(Nc1ccc(Cl)cc1)Nc1ccccc1CNc1nc(Nc2ccc(OCCN3CCCC3)cc2)ncc1Cl
- GI50 [1]: 0.855 µM
- TGI [1]: 1.58 µM
- GI50 [2]: 0.863 µM
- TGI [2]: 1.61 µM
- GI50 [3]: 2.5 µM
- TGI [3]: 11.6 µM
- GI50 [4]: 0.862 µM
- TGI [4]: 1.66 µM
- GI50 [6]: 0.871 µM
- TGI [6]: 1.61 µM
- GI50 [7]: 2.53 µM
- TGI [7]: 10 µM
- GI50 [8]: 1.16 µM
- TGI [8]: 2.64 µM
- GI50 [9]: 0.845 µM
- TGI [9]: 1.53 µM
- GI50 [10]: 0.782 µM
- TGI [10]: 1.59 µM

Structure (SMILES): C=CC(=O)Nc1cccc(Nc2nc(Nc3ccc(OCCOC(F)F)cc3)ncc2F)c1
- GI50 [1]: 7.36 µM
- TGI [1]: > 100 µM
- GI50 [3]: 5.6 µM
- TGI [3]: > 100 µM
- GI50 [4]: 2.66 µM
- TGI [4]: > 100 µM
- GI50 [5]: 2.39 µM
- TGI [5]: 18.9 µM
- GI50 [6]: 1.32 µM
- TGI [6]: 12.1 µM
- GI50 [7]: 6.99 µM
- TGI [7]: > 100 µM
- GI50 [8]: 2.48 µM
- TGI [8]: 19.7 µM
- GI50 [9]: 3.74 µM
- TGI [9]: 15.1 µM
- GI50 [10]: 1.29 µM
- TGI [10]: 9.56 µM

Structure (SMILES): NC(N)=N/N=C/c1c(-c2ccc(Cl)c([N+](=O)[O-])c2)nc2n1CCS2
- GI50 [1]: 16.6 µM
- TGI [1]: 35.5 µM
- GI50 [2]: 7.4 µM
- TGI [2]: 26.5 µM
- GI50 [3]: 4.67 µM
- TGI [3]: > 100 µM
- GI50 [4]: 14.7 µM
- TGI [4]: 32.8 µM
- GI50 [6]: 4.18 µM
- TGI [6]: 15.3 µM
- GI50 [7]: 14.3 µM
- TGI [7]: 27.3 µM
- GI50 [8]: 15.8 µM
- TGI [8]: 32.7 µM
- GI50 [9]: 15 µM
- TGI [9]: 36.7 µM
- GI50 [10]: 26 µM
- TGI [10]: 89 µM

Structure (SMILES): CCCCCCCCCCCCCCCCS(=O)(=O)c1ccc(NN)cc1
- TGI [1]: > 10 µM
- TGI [2]: > 10 µM
- TGI [3]: > 10 µM
- TGI [4]: > 10 µM
- TGI [5]: > 10 µM
- TGI [6]: > 10 µM
- TGI [7]: > 10 µM
- TGI [8]: > 10 µM
- TGI [9]: > 10 µM
